{"source": "patent US20090028847A1", "about": "“MULTIPLE MYELOMA AND AL AMYLOID IMMUNOTHERAPY TARGETING IMMUNOGLOBULIN LIGHT CHAINS AND USES THEREOF” (TRUSTEES OF BOSTON UNIVERSITY, priority 2007, published 2009)", "molecules": {"B1": {"name": "heteroclitic lambda 6(2-10) peptide (peptide)", "peptide": "YMLTQPHSV", "notes": "Variant of the native lambda 6(2-10) peptide with one substitution at position 1 of the 9mer; also called het λ62-10; heteroclitic Ig λ62-10"}}, "key": {"HLA-A2": {"biological_target": "HLA-A2 (Homo sapiens, UniProt P04439, D140Y/D185E/D98H/E176V/E277Q/G131W/G231S/I119V/I121R/I166T/I218V/L300P/L318F/N151K/N90K/P208A/P217A/Q86G/Q94H/R138H/R169H/T345S)", "test": "Cell-based fluorescence peptide/MHC (HLA-A2) binding and stability assay", "details": "for peptide binding to HLA-A2: FIG. 1, fluorescence shift (FL1) in presence vs absence of peptide", "source_text": "The native Ig λ62-10 is shown in panel A, and the heteroclitic Ig λ62-10 is show in panel B, with the shift to the right (filled in curve) in the presence of the compared to their absence (unfilled curve) indicating Ig λ62-10 peptide binding to HLA-A2 (FL1).\nThe inventors discovered, using Ig light chain sequencing studies with bone marrow aspirates from 264 AL amyloid subjects the relative frequency of light chain subtypes in AL amyloidosis. Selecting the over-represented light chains in AL amyliod subjects, the inventors evaluated the affinity for formation of stable complexes for the HLA-A*0201 (HLA-A2)-binding peptides using three algorithms to predict the stability of peptide-MHC class I complexes. One such subtype (lambda 6; 16% of all AL amyloidosis cases) contains a conserved framework I sequence (lambda 6 (2-10)) predicted to bind stably to HLA-A2. The inventors confirmed this prediction using a standard fluorescence assay. Subsequently, the inventors tested the ability to induce CTL capable of lysing peptide-pulsed or Ig lambda 6-expressing human B cell tumors by immunizing HLA-A2 transgenic, (HHD) mice (Firat et al, 1999) with the lambda 6 (2-10) peptide. The investigators also tested the ability of lambda 6 (2-10) peptide-induced CTL to cross-react with plasma cells expressing a related lambda light chain subtype (lambda 2). Using public web-based algorithms we identified potential immunogenic peptides from a human immunoglobulin light chain (lambda 6) which causes 16-20% of all AL amyloidosis. Culture based assays supported the likelihood that the identified peptide would be immunogenic."}, "[1]": {"tested_on": "B cell lymphoblastoma (JY) cells pulsed with peptide", "test": "Chromium-release killing assay with CTL from peptide-immunized HHD mice, peptide-pulsed JY targets", "assay_type": "ex vivo", "details": "for CTL lysis of peptide-pulsed target cells: T cells of HHD mice immunized with the peptide, not with negative control peptide", "procedure": "(§1) Mice: HHD mice on […] background, transgenic for human MHC Class I (α1 and α2 domains from HLAA*0201, α3 domain from […]) and knockout of H2-D^b (mouse MHC Class I).\n(§2) Immunizations: 200 μg peptide plus 200 μg HBVc “helper” peptide (to elicit CD4+ T cell help), emulsified in […] Freud's Adjuvant (IFA) is used to immunize the HHD mice subcutaneously in the lower abdominal area.\n(§3) Mouse T Cell Culture: Spleens were harvested from the mice and dissociated using sterile frosted glass slides to yield single-cell suspension. Spleenocytes are plated at approximately 1×10^6 cells/ml and 10% FBS supplemented with L-glutamine, non-essential amino acids and β2-mercaptoethanol. Ex vivo cells were stimulated with 10 μg/ml peptide and fed every 2-3 days with medium and 2 ng/ml rIL-2 for 7-10 days.\nCell Lines: Human cell lines which naturally express the HLAA*0201 allele of MHC Class I are grown in RPMI 1640 and 10% FBS supplemented with L-glutamine. Cell lines include the JY and U66 lymphobastoma cell lines of B cell origin and the T2 cell line of T cell origin.\n(§4) Killing Assay: Target cell lines are loaded with radioactive sodium chromate (^51Cr) and pulsed with 20 μg/ml peptide or as a negative control peptide, flu matrix protein MP-58. Spleen cells are plated with targets at various effector target ratios and incubated at 37° C., 5% CO2 overnight. Supernatants are harvested from each well and assayed for radioactive chromium indicating release from lysed cells. % specific lysis was determined by subtracting the control minimum release from experimental wells and dividing by maximum-minimum release.\nStatistics: Statistical analysis was performed with Statview. Data from killing assays of a minimum of three mice are presented as means ± standard errors (SE). ANOVA was used to determine the statistical significance compared to the negative control peptide."}, "[2]": {"tested_on": "Ig λ2-expressing U266 multiple myeloma plasma cells", "test": "Chromium-release killing assay with CTL from peptide-immunized HHD mice, U266 targets", "assay_type": "ex vivo", "details": "FIG. 5", "procedure": "as §1, §2, §3\n(§5) Cell Lines: Human cell lines which naturally express the HLAA*0201 allele of MHC Class I are grown in RPMI 1640 and 10% FBS supplemented with L-glutamine. […]\nas §4, with “Spleen cells are plated with targets at various effector target ratios and incubated at 37° C., 5% CO2 overnight.” left out, “release. […]” for “release.”"}, "[3]": {"tested_on": "JY cells transfected with full length λ6 gene", "test": "Chromium-release killing assay with CTL from peptide-immunized HHD mice, JY cells transfected with full length λ6 gene", "assay_type": "in vivo", "details": "FIG. 4", "procedure": "as §1, §2, §3, §5\nas §4, with “Spleen cells are plated with targets at various effector target ratios and incubated at 37° C., 5% CO2 overnight.” left out, “release. […]” for “release.”"}, "[4]": {"biological_target": "T1, HLA-A*0201 (HLA-A2) on cells (human)", "T1 construct": "whole, on cells; also called MHC Class I", "test": "flow cytometry, HLA-A2 fluorescence (FL1) on cells with and without peptide"}, "[5]": {"details": "T cells of HHD mice immunized with the peptide"}}, "data": [{"molecule": "FMLTQPHSV [λ62-10, 9mer from framework 1 of the human lambda 6 immunoglobulin light chain]", "values": [{"measurement": "peptide binding to HLA-A2", "setting": "HLA-A2", "result": "binds to HLA-A2"}, {"measurement": "CTL lysis of peptide-pulsed target cells", "setting": "[1]", "result": "lysed target cells pulsed with the λ6 peptide"}, {"measurement": "mice that produced a CTL response", "setting": "[1]; of 24 mice immunized, FIG. 2", "result": 17, "unit": "mice"}, {"measurement": "CTL lysis of U266 target cells", "setting": "[2]; [5]", "result": "lysed U266 target cells pulsed with the λ6 peptide as well as U266 cells not pulsed with a peptide"}, {"measurement": "mice that produced a CTL response", "setting": "[2]; of 11 mice immunized", "result": 8, "unit": "mice"}, {"measurement": "CTL lysis of targets transfected with full length λ6 gene", "setting": "[3]; [5]", "result": "lysed targets transfected with the gene for the full length λ6 protein"}, {"measurement": "mice that produced a CTL response", "setting": "[3]; of 16 mice immunized", "result": 13, "unit": "mice"}]}, {"molecule": "SLFPRLYPV (listed as Mus musculus) [mBlimp470-478, native peptide of the murine Blimp-1 protein]", "values": [{"measurement": "CTL lysis of peptide-pulsed target cells", "setting": "[1]", "result": "lysed target cells pulsed with the native murine Blimp470-478 peptide"}, {"measurement": "mice that produced a CTL response", "setting": "[1]; of 12 mice immunized, FIG. 7", "result": 10, "unit": "mice"}]}, {"molecule": "YLFPRLYPV (listed as Mus musculus) [heteroclitic mBlimp470-478, heteroclitic variant of mBlimp470-478]", "values": [{"measurement": "CTL lysis of peptide-pulsed target cells", "setting": "[1]", "result": "lysed target cells pulsed with the hc murine Blimp470-478 peptide"}, {"measurement": "mice that produced a CTL response", "setting": "[1]; of 10 mice immunized, FIG. 8", "result": 7, "unit": "mice"}]}, {"molecule": "YMLTQPHSV [het λ62-10, heteroclitic variant of lambda 6(2-10), substitution at position 1]", "values": [{"measurement": "peptide binding to HLA-A2", "setting": "HLA-A2; listed as YMLTQPHSV (SEQ ID NO: 2)", "result": "higher affinity"}, {"measurement": "peptide binding to HLA-A2", "setting": "HLA-A2; listed as heteroclitic Ig λ62-10", "result": "binds to HLA-A2"}, {"measurement": "stability of peptide/MHC complex", "setting": "HLA-A2; FIG. 9, as early as 2 hours and over at least 24 hours", "result": "more stable than the native lambda 6 peptide"}, {"measurement": "CTL lysis of peptide-pulsed target cells", "setting": "[1]", "result": "lysed target cells pulsed with either heteroclitic λ6 peptide or the native λ6 peptide"}, {"measurement": "mice that produced a CTL response", "setting": "[1]; of 8 mice immunized, FIG. 3", "result": 7, "unit": "mice"}]}, {"molecule": "FMLTQPHSV (also called λ62-10; Ig λ62-10)", "note": "[lambda 6(2-10) peptide]", "values": [{"measurement": "binding result", "setting": "[4]", "result": "binds"}]}, {"molecule": "B1", "values": [{"measurement": "binding result", "setting": "[4]", "result": "binds"}]}]}
